Assay results: US5547978A, “Derivatives of pyrrolidin-2-ylcarbonylheterocyclic compounds” (priority 1994, dated 1996)

target: T1, prolyl endopeptidase (Sus scrofa, UniProt P23687); assay: Prolyl endopeptidase-inhibitory activity in vitro (porcine kidney enzyme, Z-Gly-Pro-p-nitroanilide substrate); type: biochemical; details: not given
T1 construct: porcine kidney enzyme which was prepared according to methods of Walter and Yoshimoto et al; from tissue; host or cells: porcine kidney
Procedure: A test compound (2 mg) was dissolved in DMSO (2 ml) and diluted to appropriate concentrations with DMSO. Z-Gly-Pro-p-nitroanilide (8 mg), a substrate was dissolved in dioxane (5 ml), water (27 ml) and 0.2 M phosphate buffer (pH 7.8, 40 ml). The substrate solution ([…]) was mixed with an inhibitor solution (3 ml) and followed by addition of above mentioned porcine kidney enzyme solution ([…]). Immediately after the mixing the UV absorbance at 405 nm was detected. The mixture was incubated at 37° C. for 20 min. and the UV absorbance was checked. A standard curve of absorbance (OD) vs. p-nitroaniline concentration was used to relate the absorbance to amount of substrate hydrolyzed. […] The inhibiting activity was obtained following the equation below. The IC50 value was estimated from the inhibitor concentration vs. inhibitory activity curve.
The percent inhibitory activity (%)=(ΔODc -ΔODs)/ΔODc ×100
ΔODs : ΔOD for test sample

T1 sequence (P23687 whole entry): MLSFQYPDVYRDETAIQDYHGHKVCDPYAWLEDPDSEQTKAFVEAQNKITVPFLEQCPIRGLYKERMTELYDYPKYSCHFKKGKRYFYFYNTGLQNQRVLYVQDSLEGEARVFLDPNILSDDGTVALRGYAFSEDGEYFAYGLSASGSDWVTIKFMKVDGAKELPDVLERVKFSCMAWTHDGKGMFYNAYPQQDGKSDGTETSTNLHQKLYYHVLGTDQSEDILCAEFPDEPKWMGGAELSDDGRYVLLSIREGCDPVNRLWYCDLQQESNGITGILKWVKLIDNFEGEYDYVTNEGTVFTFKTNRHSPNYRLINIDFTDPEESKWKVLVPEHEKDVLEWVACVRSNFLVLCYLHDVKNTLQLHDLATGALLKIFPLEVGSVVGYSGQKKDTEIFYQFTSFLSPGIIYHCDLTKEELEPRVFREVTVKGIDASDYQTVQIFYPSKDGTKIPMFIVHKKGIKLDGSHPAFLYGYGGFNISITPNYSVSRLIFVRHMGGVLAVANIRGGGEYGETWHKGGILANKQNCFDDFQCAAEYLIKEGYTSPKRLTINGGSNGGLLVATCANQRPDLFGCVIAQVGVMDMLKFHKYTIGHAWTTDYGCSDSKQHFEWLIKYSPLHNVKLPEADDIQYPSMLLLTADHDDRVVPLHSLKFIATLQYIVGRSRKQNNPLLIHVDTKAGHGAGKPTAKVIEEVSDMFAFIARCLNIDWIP

Compound	IC50 [nM]
O=C(c1cocn1)[C@@H]1CCCN1C(=O)[C@@H]1Cc2ccccc2N1C(=O)OCc1ccccc1 [Example 3, 4-{1-(1-Benzyloxycarbonylindolin-2(S)-ylcarbonyl)pyrrolidin2(S) -ylcarbonyl}oxazole]	9.54
O=C(c1nccs1)[C@@H]1CCCN1C(=O)[C@@H]1CC2CCCCC2N1C(=O)OCc1ccccc1 (stereo partly drawn) [Example 6, 2-{1(1-Benzyloxycarbonyloctahydroindol-2(S)-ylcarbonyl)pyrrolidin-2(S)ylcarbonyl}thiazole]	4.28
O=C(c1nc2ccccc2s1)[C@@H]1CCCN1C(=O)[C@@H]1CCCN1C(=O)OCc1ccccc1 [Example 17, 2-{1-(1-Benzyloxycarbonylpyrrolidin-2(S)-ylcarbonyl)pyrrolidin-2(S)-ylcarbonyl}benzothiazole]	3.78
O=C(c1nccs1)[C@@H]1CCCN1C(=O)[C@@H]1C[C@@H](Sc2ccccc2)CN1C(=O)OCc1ccccc1 [Example 2, 2-[1-{1-Benzyloxycarbonyl-4(R)-phenylthiopyrrolidin-2(S)-ylcarbonyl}pyrrolidin-2(S)-ylcarbonyl]thiazole]	4.79
O=C(c1nccs1)[C@@H]1CCCN1C(=O)[C@@H]1Cc2ccccc2N1C(=O)CCCc1ccccc1 [Example 9, 2-[1-{1-(4-Phenylbutanoyl)indolin-2(S)-ylcarbonyl}pyrrolidin-2(S)-ylcarbonyl]thiazole]	5.49
O=C(c1nc2ccccc2[nH]1)[C@@H]1CCCN1C(=O)[C@@H]1CCCN1C(=O)OCc1ccccc1 [Example 39]	7.61
O=C(c1nc2ccccc2s1)[C@@H]1CCCN1C(=O)[C@@H]1C[C@@H](Sc2ccccc2)CN1C(=O)CCCc1ccccc1 [Example 21, 2-[1-{1-(4-Phenylbutanoyl)-4(R)-phenylthiopyrrolidin-2(S)-ylcarbonyl}pyrrolidin-2(S)-ylcarbonyl]benzothiazole]	1.8
Cc1nc(C(=O)[C@@H]2CCCN2C(=O)[C@@H]2CCCN2C(=O)CCCc2ccccc2)sc1C [Example 27, 4,5-Dimethyl-2-[1-{1-(4-phenylbutanoyl)pyrrolidin-2(S)-ylcarbonyl}pyrrolidin-2(S)-ylcarbonyl]thiazole]	6.06
O=C(c1nc2ncccc2o1)[C@@H]1CCCN1C(=O)[C@@H]1CCCN1C(=O)CCCc1ccccc1 [Example 37, 2-[1 -{1-(4-Phenylbutanoyl)pyrrolidin-2(S)-ylcarbonyl}pyrrolidin-2(S)-ylcarbonyl]oxazolo[4,5-b]pyridine]	4.78
O=C(c1ccccn1)[C@@H]1CCCN1C(=O)[C@@H]1CCCN1C(=O)CCCc1ccccc1 [Example 32, 2-[1-{1-(4-Phenylbutanoyl)pyrrolidin-2(S)-ylcarbonyl}pyrrolidin-2(S)-ylcarbonyl]pyridine]	7.15
O=C(c1cncnc1)[C@@H]1CCCN1C(=O)[C@@H]1CCCN1C(=O)CCCc1ccccc1 [Example 31, 5-[1-{1-(4-Phenylbutanoyl)pyrrolidin-2(S)-ylcarbonyl}pyrrolidin-2(S)-ylcarbonyl]pyrimidine]	64.2

same assay, conditions: porcine kidney enzyme, pH 7.8, 37° C., 20 min

Compound	IC50 [µg/mL]
O=C(c1cncs1)[C@@H]1CCCN1C(=O)[C@@H]1CCCN1C(=O)CCCc1ccccc1 [Example 33, 5-[1-{1-(4-Phenylbutanoyl)pyrrolidin-2(S)-ylcarbonyl}pyrrolidin-2(S)-ylcarbonyl]thiazole]	0.275
O=C(c1cccs1)[C@@H]1CCCN1C(=O)[C@@H]1CCCN1C(=O)CCCc1ccccc1 [Example 26, 2-[1-{1-(4-Phenylbutanoyl)pyrrolidin-2(S)-ylcarbonyl}pyrrolidin-2(S)-ylcarbonyl]thiophene]	0.81
2-[1-{1-(4-Phenylbutanoyl)pyrrolidin-2(S)-ylcarbonyl}pyrrolidin-2(S)-ylcarbonyl]pyrazole [Example 35]	0.046

same assay, conditions: porcine kidney enzyme, pH 7.8, 37° C., 20 min; read-out: IC50 (converted)

Compound	IC50 [nM]
O=C(c1ncc[nH]1)[C@@H]1CCCN1C(=O)[C@@H]1CCCN1C(=O)CCCc1ccccc1 [Example 28, 2-[1-{1-(4-Phenylbutanoyl)pyrrolidin-2(S)-ylcarbonyl}pyrrolidin-2(S)-ylcarbonyl]-1H-imidazole]	6.24
